Experimental findings from patent US9115134B2, “6-triazolopyridazine sulfanyl benzothiazole derivatives as MET inhibitors” (SANOFI, priority 2007, dated 2015) are described below.

In data set [1] the target is T1, MET (Homo sapiens, UniProt P08581). The data set can be described thus: Test A: HTRF MET assay in 96-well format. In kind it is biochemical. Also noted: The His-Tev-MET (956-1390) recombinant DNA in pFastBac (Invitrogen) is transfected into insect cells; His tag (N, cleaved yes); TEV cleavage site (N); made in house; host or cells: SF21 insect cells (baculovirus, pFastBac). The following applies: MET 5 nM, 10 μM ATP. A digest of the protocol: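 Purified human MET cytoplasmic domain (956-1390, His tag cleaved), 5 nM, with compound (0.17 nM–10 μM, 3% DMSO) in MOPS pH 7.4; 1 μg/ml poly-(GAT), 10 μM ATP, 5 mM MgCl2, 10 min at ambient temperature. HTRF read-out (streptavidin-XL/anti-pTyr Eu cryptate, 2 h); % inhibition from 665/620 ratios.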
Target sequence in this assay (P08581 956-1390): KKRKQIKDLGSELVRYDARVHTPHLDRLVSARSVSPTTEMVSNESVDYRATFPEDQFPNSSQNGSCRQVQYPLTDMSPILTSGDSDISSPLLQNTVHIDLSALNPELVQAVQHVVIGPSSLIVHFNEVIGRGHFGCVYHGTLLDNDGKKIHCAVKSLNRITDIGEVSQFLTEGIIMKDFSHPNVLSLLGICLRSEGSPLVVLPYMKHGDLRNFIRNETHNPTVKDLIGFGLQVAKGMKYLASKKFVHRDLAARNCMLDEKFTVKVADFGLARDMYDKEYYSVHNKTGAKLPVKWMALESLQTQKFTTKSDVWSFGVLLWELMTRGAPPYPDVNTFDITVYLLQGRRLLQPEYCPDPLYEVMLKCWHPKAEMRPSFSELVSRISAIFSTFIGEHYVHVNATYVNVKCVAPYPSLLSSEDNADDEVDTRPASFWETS

Data set [2] deals with T1, MET. The data set can be described thus: Test B: Inhibition of the autophosphorylation of MET; ELISA technique (pppY1230,1234,1235) in MKN45 cells. The following applies: 1 h treatment, PhosphoMET ELISA. Details: Seed MKN45 cells into 96-well plates (Cell coat BD polylysine) at 20 000 cells/well; endogenous in cells; host or cells: MKN45 cells. In kind it is cell-based. A digest of the protocol: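 Adhered cells treated 1 h with six compound concentrations in duplicate, final 10 000 to 30 nM, against DMSO controls. Cells then lysed at 4° C for 30 min in Triton/SDS/deoxycholate buffer with phosphatase inhibitors. Phospho-MET measured by sandwich ELISA with anti-phospho MET antibody and HRP detection, absorbance at 450 nm.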
Target sequence in this assay (P08581 25-1390): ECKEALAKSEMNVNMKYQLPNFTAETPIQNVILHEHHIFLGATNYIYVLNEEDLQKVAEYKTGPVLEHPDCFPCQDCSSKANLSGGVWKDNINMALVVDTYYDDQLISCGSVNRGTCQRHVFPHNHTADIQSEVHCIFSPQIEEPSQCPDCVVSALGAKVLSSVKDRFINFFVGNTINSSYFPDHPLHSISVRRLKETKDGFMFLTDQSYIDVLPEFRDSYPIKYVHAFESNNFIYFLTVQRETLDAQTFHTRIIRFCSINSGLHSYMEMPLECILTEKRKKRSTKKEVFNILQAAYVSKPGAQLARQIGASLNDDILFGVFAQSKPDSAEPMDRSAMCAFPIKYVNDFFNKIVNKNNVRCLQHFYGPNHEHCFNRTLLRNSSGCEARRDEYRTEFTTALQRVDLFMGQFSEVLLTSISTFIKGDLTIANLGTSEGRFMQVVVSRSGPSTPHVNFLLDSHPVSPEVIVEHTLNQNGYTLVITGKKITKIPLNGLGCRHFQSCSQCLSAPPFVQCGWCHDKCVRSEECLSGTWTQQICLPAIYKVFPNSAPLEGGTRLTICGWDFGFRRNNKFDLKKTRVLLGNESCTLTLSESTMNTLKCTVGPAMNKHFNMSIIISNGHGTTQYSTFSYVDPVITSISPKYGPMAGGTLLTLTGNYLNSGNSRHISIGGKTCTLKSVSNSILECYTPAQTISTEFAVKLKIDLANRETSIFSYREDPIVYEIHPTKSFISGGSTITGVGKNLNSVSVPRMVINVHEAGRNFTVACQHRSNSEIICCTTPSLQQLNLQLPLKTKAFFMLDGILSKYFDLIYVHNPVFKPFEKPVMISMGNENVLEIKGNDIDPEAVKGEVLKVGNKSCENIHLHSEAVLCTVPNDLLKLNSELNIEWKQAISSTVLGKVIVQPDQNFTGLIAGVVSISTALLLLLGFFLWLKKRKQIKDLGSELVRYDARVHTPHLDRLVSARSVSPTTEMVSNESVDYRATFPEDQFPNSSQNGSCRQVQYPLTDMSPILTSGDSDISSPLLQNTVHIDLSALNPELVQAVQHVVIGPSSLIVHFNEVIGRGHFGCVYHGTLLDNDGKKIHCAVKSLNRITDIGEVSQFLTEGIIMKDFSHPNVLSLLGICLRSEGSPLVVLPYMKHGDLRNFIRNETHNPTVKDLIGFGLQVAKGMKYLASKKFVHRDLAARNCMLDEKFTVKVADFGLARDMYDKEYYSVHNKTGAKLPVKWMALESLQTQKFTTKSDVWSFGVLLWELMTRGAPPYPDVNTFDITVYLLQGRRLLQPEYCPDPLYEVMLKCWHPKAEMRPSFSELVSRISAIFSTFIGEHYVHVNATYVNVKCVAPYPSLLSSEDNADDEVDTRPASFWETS
For orientation: An ELISA detects its analyte on a solid surface through an enzyme-linked reagent.

Data set [3] has as its system HCT116 cells, MKN45 cells. The data set can be described thus: Test C: Measurement of cell proliferation by 14C-thymidine pulse. The following applies: 14C-thymidine incorporation, 96 h of treatment; cell line not given. In kind it is cell-based. Put shortly: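 HCT116 (2500/well, DMEM) and MKN45 (7500/well, RPMI), both with 10% FCS, treated after 4 h with 10 concentrations from 10 000 to 0.3 nM (3-fold, duplicate). ¹⁴C-thymidine (0.1 μCi/well) added at 72 h; incorporation read after 24 h pulse, 96 h total treatment.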
A general note: Incorporation of labelled thymidine or its analogues reports DNA synthesis.

pIC50: −log10 of the molar value.

Consider `CCC(C)CNc1nc2ccc(Sc3nnc4n3N=C(c3ccc(F)cc3)CC4)cc2s1` (stereo not shown) [Example 68, 6-{[6-(4-Fluorophenyl)-7,8-dihydro[1,2,4]triazolo[4,3-b]pyridazin-3-yl]sulphanyl}-N-(2-methylbutyl)-1,3-benzothiazol-2-amine], for which the melting point (usually the temperature, or range, at which the solid turns liquid) was determined as 220 °C. For the same molecule, the pIC50 (commonly −log10 of the IC50, conventionally taken in molar units) on MET [1] is more than 6.30. For the same molecule, the pIC50 at MET [2] is less than 6.30. For the same molecule, the pIC50 in data set [3] is more than 5.00.
As to `Nc1nc2ccc(Sc3nnc4ccc(-c5cccc(F)c5)nn34)cc2s1` [Example 53, 6-{[6-(3-Fluorophenyl)[1,2,4]triazolo[4,3-b]pyridazin-3-yl]sulphanyl}-1,3-benzothiazol-2-amine], the pIC50 is more than 7.00 at MET [1], more than 7.00 at MET [2] and more than 6.00 in data set [3].
`Nc1nc2ccc(Sc3nnc4ccc(-c5ccccc5F)nn34)cc2s1` [Example 56, 6-{[6-(2-Fluorophenyl)[1,2,4]triazolo[4,3-b]pyridazin-3-yl]sulphanyl}-1,3-benzothiazol-2-amine]: the negative-log IC50 (pIC50) is more than 7.00 at MET [1], 6.30 to 7.00 on MET [2] and more than 6.00 in data set [3].
For `Nc1nc2ccc(Sc3ccc(C4=Nn5c(nnc5Sc5ccc6nc(N)sc6c5)CC4)cc3)cc2s1` [Example 8, 6-[(4-{3-[(2-amino-1,3-benzothiazol-6-yl)sulphanyl]-7,8-dihydro[1,2,4]triazolo-[4,3-b]pyridazin-6-yl}phenyl)sulphanyl]-1,3-benzothiazol-2-amine] the same measures were more than 7.00, less than 6.30 and more than 5.00.
As for `CC(=O)Nc1ccc2nnc(Sc3ccc4nc(NC(=O)NCCN5CCOCC5)sc4c3)n2n1` [Example 31, N-(3-{[2-({[2-(Morpholin-4-yl)ethyl]carbamoyl}amino)-1,3-benzothiazol-6-yl]sulphanyl}[1,2,4]triazolo[4,3-b]pyridazin-6-yl)acetamide], the pIC50 is more than 7.00 on MET [1], 6.30 to 7.00 against MET [2] and more than 6.00 in data set [3].
For `CCOc1ccc2nnc(Sc3ccc4nc(NC(=O)NC5CC5)sc4c3)n2n1` [Example 59, 1-cyclopropyl-3-{6-[(6-ethoxy[1,2,4]triazolo[4,3-b]pyridazin-3-yl)sulphanyl]-1,3-benzothiazol-2-yl}urea] the same measures were more than 7.00, more than 7.00 and more than 6.00.
For `COCCNc1ccc2nnc(Sc3ccc4nc(NC(C)=O)sc4c3)n2n1` [Example 27, N-[6-({6-[(2-Methoxyethyl)amino][1,2,4]triazolo[4,3-b]pyridazin-3-yl}sulphanyl)-1,3-benzothiazol-2-yl]acetamide] the same measures were more than 7.00, more than 7.00 and more than 6.00.
`Nc1nc2ccc(Sc3nnc4ccc(-c5ccc(F)cc5)nn34)cc2s1` [Example 3, 6-{[6-(4-Fluorophenyl)[1,2,4]triazolo[4,3-b]pyridazin-3-yl]sulphanyl}-1,3-benzothiazol-2-amine]: the pIC50 at MET [1] is more than 7.00; against MET [2], more than 7.00; in data set [3] it was more than 6.00.
Regarding `COc1ccc2nnc(Sc3ccc4nc(NC(=O)OC(C)(C)C)sc4c3)n2n1` [Example 21, 1,1-Dimethylethyl {6-[(6-methoxy[1,2,4]triazolo[4,3-b]pyridazin-3-yl)sulphanyl]-1,3-benzothiazol-2-yl}carbamate], the pIC50 at MET [1] is more than 7.00; on MET [2] it was 6.30 to 7.00; in data set [3] it was more than 6.00.
